77 sequences from the supplement of paper PMC11208160 can be followed below.

This data set can be described thus: recombinant barcode read abundance after kanamycin selection (control-corrected) (log10(CPM+1)); higher = more efficient recombination; sequences stand for … in AGTGCAGAGAAAATCGGCCAGTTTTCTCTGCCTGCAGTCCGCATGCCGT…AGATTTATGCAGCGGACTGCCTTTCTCCCAAAGTGATAAACCGGACAGTATCATGGACCGGTTTTCCCGGTAATCCGTATTTGCAAGGTTGGTTTCACT; site = the 11-nt target. A digest of the protocol: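 A vector carrying a T7-inducible recombinase and the last 73 bp of the bridge RNA received, by Gibson cloning, oligos encoding a promoter, target, barcode and the first 104 bridge RNA bases under J23119. The pooled constructs entered E. coli together with a donor plasmid by electroporation. Selection used chloramphenicol/ampicillin/kanamycin with 0.1 mM IPTG, with chloramphenicol/ampicillin LB agar as the control, each in two replicates. Recombination efficiency is the averaged, control-corrected counts-per-million of barcodes at recombinant junctions, reported as log10(CPM+1).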
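Further: IS621 recombinase and bridge RNA in Escherichia coli cells.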

Take “GCCGGGCCTTGGGTTCTAACCTGTTGCCT (site GCCGGGCCTAG)”: the “recombinant barcode read abundance (log10)” value turned out to be 0.265. Take “GCCGGGCCTTGGGTTCTAACCTGTTGCCT (site GCTGCGCCTAG)”: the “recombinant barcode read abundance (log10)” value stood at 0.0616. Regarding “GCCGGGGCTTGGGTTCTAACCTGTTGCCG (site GCCAGGGCTCG)”, the “recombinant barcode read abundance (log10)” value was 0.262. Then “GCCGGGGCTTGGGTTCTAACCTGTTGCCG (site GCCCGGGCTCG)”, with 0.452; and “GCCGGGGCTTGGGTTCTAACCTGTTGCCG (site GCCGGGGCTCG)”, with 0.186. “GCCGGGGCTTGGGTTCTAACCTGTTGCCG (site GCCTGGGCTCG)”: the “recombinant barcode read abundance (log10)” value was 0.258.

With “GCCGTCCCTTGGGTTCTAACCTGTTGCTA (site GCCGTCCCTTA)”, the “recombinant barcode read abundance (log10)” value stood at 0.202. On to “GCCGTCCCTTGGGTTCTAACCTGTTGCTA (site GTCGTCCCTTG)”, for which the “recombinant barcode read abundance (log10)” value is 0.106. Take “GCCGTCTCTTGGGTTCTAACCTGTTGCCT (site GCCATCTCTAG)”: the “recombinant barcode read abundance (log10)” value stood at 0.114. Then “GCCGTCTCTTGGGTTCTAACCTGTTGCCT (site GCCGTCTCTAG)”, with 0.135.

As for “GCCTCGCCTTGGGTTCTAACCTGTTGCAG (site GCCACGCCTCT)”, the “recombinant barcode read abundance (log10)” value came out at 0.341.

Consider “GCCTCGCCTTGGGTTCTAACCTGTTGCAG (site GCCCCGCCTCT)”, for which the “recombinant barcode read abundance (log10)” value was 0.133.

For “GCCTCGCCTTGGGTTCTAACCTGTTGCAG (site GCCGCGCCTCT)”, the “recombinant barcode read abundance (log10)” value is 0.326. Then “GCCTCGCCTTGGGTTCTAACCTGTTGCAG (site GCCTCGCCTCT)”, with 0.229; and “GCCTGCCCTTGGGTTCTAACCTGTTGCTG (site GCCTGCCCTCA)”, with 1.51; and “GCCTGCCCTTGGGTTCTAACCTGTTGCTG (site TGGGTGACTAG)”, with 0.0502. Regarding “GCGAAGTCTTGGGTTCTAACCTGTTGCTT (site GCGAACACTAA)”, the “recombinant barcode read abundance (log10)” value stood at 0.0375. Take “GCGAAGTCTTGGGTTCTAACCTGTTGCTT (site GCGAAGTCTAA)”: the “recombinant barcode read abundance (log10)” value stood at 1.15. With “GCGAATCCTTGGGTTCTAACCTGTTGCCT (site GCGAATCCTAG)”, the “recombinant barcode read abundance (log10)” value came out at 0.845. Regarding “GCGAATCCTTGGGTTCTAACCTGTTGCCT (site GCGCATCCTAG)”, the “recombinant barcode read abundance (log10)” value stood at 0.213. Then “GCGAATCCTTGGGTTCTAACCTGTTGCCT (site GCGGATCCTAG)”, with 0.069; and “GCGAATCCTTGGGTTCTAACCTGTTGCCT (site GCGTATCCTAG)”, with 0.099. For “GCGACTCCTTGGGTTCTAACCTGTTGCAT (site GCGACTCCTAT)”, the “recombinant barcode read abundance (log10)” value was found to be 0.857. For the sequence “GCGACTCCTTGGGTTCTAACCTGTTGCAT (site GCGCCTCCTAT)”, the “recombinant barcode read abundance (log10)” value was 0.118. With “GCGACTCCTTGGGTTCTAACCTGTTGCAT (site GCGGCTCCTAT)”, the “recombinant barcode read abundance (log10)” value is 0.14. Then “GCGACTCCTTGGGTTCTAACCTGTTGCAT (site GCGTCTCCTAT)”, with 0.0718.

As to “GCGACTCCTTGGGTTCTAACCTGTTGCTA (site GAGACTCCTTA)”, the “recombinant barcode read abundance (log10)” value was determined as 0.739. On to “GCGACTCCTTGGGTTCTAACCTGTTGCTA (site GCGACTCCTTA)”, for which the “recombinant barcode read abundance (log10)” value was determined as 0.619.

As to “GCGAGCTCTTGGGTTCTAACCTGTTGCCT (site GCGAGCTCTAG)”, the “recombinant barcode read abundance (log10)” value amounted to 1.6.

“GCGAGCTCTTGGGTTCTAACCTGTTGCCT (site GCGCGTTCTAG)”: the “recombinant barcode read abundance (log10)” value was 0.291. Then “GCGATGTCTTGGGTTCTAACCTGTTGCCT (site GAGATGTCTAG)”, with 0.183; and “GCGATGTCTTGGGTTCTAACCTGTTGCCT (site GCGATGTCTAG)”, with 1.33. Regarding “GCGATGTCTTGGGTTCTAACCTGTTGCCT (site GGGATGTCTAG)”, the “recombinant barcode read abundance (log10)” value stood at 0.514. Turning to “GCGATGTCTTGGGTTCTAACCTGTTGCCT (site GTGATGTCTAG)”, the “recombinant barcode read abundance (log10)” value was determined as 0.116. For the sequence “GCGCGGCCTTGGGTTCTAACCTGTTGCTT (site GCACGCCCTAA)”, the “recombinant barcode read abundance (log10)” value was 0.0904. For “GCGCGGCCTTGGGTTCTAACCTGTTGCTT (site GCGCGGCCTAA)”, the “recombinant barcode read abundance (log10)” value came out at 0.492. For the sequence “GCGCTAACTTGGGTTCTAACCTGTTGCCT (site GCGCTAACTAG)”, the “recombinant barcode read abundance (log10)” value is 1.05.

As to “GCGCTAACTTGGGTTCTAACCTGTTGCCT (site TCGCTAACTAG)”, the “recombinant barcode read abundance (log10)” value turned out to be 0.169. With “GCGCTCCCTTGGGTTCTAACCTGTTGCCT (site GCACTCCCTAG)”, the “recombinant barcode read abundance (log10)” value came out at 1.25.

For the sequence “GCGCTCCCTTGGGTTCTAACCTGTTGCCT (site GCCCTCCCTAG)”, the “recombinant barcode read abundance (log10)” value worked out at 0.388. With “GCGCTCCCTTGGGTTCTAACCTGTTGCCT (site GCGCTCCCTAG)” the figure was 0.926; with “GCGCTCCCTTGGGTTCTAACCTGTTGCCT (site GCTCTCCCTAG)”, 0.145.

Take “GCGGACTCTTGGGTTCTAACCTGTTGCCA (site GCGGACTCTTG)”: the “recombinant barcode read abundance (log10)” value was 2.09. As to “GCGGACTCTTGGGTTCTAACCTGTTGCCA (site GCGTACTCTAG)”, the “recombinant barcode read abundance (log10)” value was 0.0401. With “GCGGAGTCTTGGGTTCTAACCTGTTGCGT (site GCGGAGTCTAC)” the figure was 1.45. As for “GCGGAGTCTTGGGTTCTAACCTGTTGCGT (site GCTAAGTCTAC)”, the “recombinant barcode read abundance (log10)” value stood at 0.0484. On to “GCGGATCCTTGGGTTCTAACCTGTTGCCT (site GCGAATCCTAG)”, for which the “recombinant barcode read abundance (log10)” value worked out at 0.824. Regarding “GCGGATCCTTGGGTTCTAACCTGTTGCCT (site GCGCATCCTAG)”, the “recombinant barcode read abundance (log10)” value is 0.0111. Consider “GCGGATCCTTGGGTTCTAACCTGTTGCCT (site GCGGATCCTAG)”, for which the “recombinant barcode read abundance (log10)” value was 2.11. With “GCGGATCCTTGGGTTCTAACCTGTTGCCT (site GCGTATCCTAG)”, the “recombinant barcode read abundance (log10)” value came to 1.05. With “GCGGCGACTTGGGTTCTAACCTGTTGCCT (site GCAGCGACTAG)”, the “recombinant barcode read abundance (log10)” value worked out at 0.291. For the sequence “GCGGCGACTTGGGTTCTAACCTGTTGCCT (site GCCGCGACTAG)”, the “recombinant barcode read abundance (log10)” value was determined as 0.162. Turning to “GCGGCGACTTGGGTTCTAACCTGTTGCCT (site GCGGCGACTAG)”, the “recombinant barcode read abundance (log10)” value came to 0.891. Then “GCGGCGACTTGGGTTCTAACCTGTTGCCT (site GCTGCGACTAG)”, with 0.0436; and “GCGGGATCTTGGGTTCTAACCTGTTGCCT (site ACGGGATCTAG)”, with 0.765; and “GCGGGATCTTGGGTTCTAACCTGTTGCCT (site CCGGGATCTAG)”, with 0.258. For “GCGGGATCTTGGGTTCTAACCTGTTGCCT (site GCGGGATCTAG)”, the “recombinant barcode read abundance (log10)” value amounted to 1.06. Regarding “GCGGGATCTTGGGTTCTAACCTGTTGCCT (site TCGGGATCTAG)”, the “recombinant barcode read abundance (log10)” value was 0.174.

As for “GCGGGGTCTTGGGTTCTAACCTGTTGCTT (site GCAGGGTCTAA)”, the “recombinant barcode read abundance (log10)” value came out at 2.65. For “GCGGGGTCTTGGGTTCTAACCTGTTGCTT (site GCCGGGTCTAA)”, the “recombinant barcode read abundance (log10)” value is 0.124. With “GCGGGGTCTTGGGTTCTAACCTGTTGCTT (site GCGGGGTCTAA)”, the “recombinant barcode read abundance (log10)” value was 2.2. As to “GCGGGGTCTTGGGTTCTAACCTGTTGCTT (site GCTGGGTCTAA)”, the “recombinant barcode read abundance (log10)” value stood at 0.783.

Turning to “GCGGGTCCTTGGGTTCTAACCTGTTGCCT (site GCAGGTCCTAG)”, the “recombinant barcode read abundance (log10)” value came to 2.24. Take “GCGGGTCCTTGGGTTCTAACCTGTTGCCT (site GCCGGTCCTAG)”: the “recombinant barcode read abundance (log10)” value was determined as 0.213. Take “GCGGGTCCTTGGGTTCTAACCTGTTGCCT (site GCGGGTCCTAG)”: the “recombinant barcode read abundance (log10)” value was found to be 2.15.

With “GCGGGTCCTTGGGTTCTAACCTGTTGCCT (site GCTGGTCCTAG)”, the “recombinant barcode read abundance (log10)” value worked out at 0.532. With “GCGTCACCTTGGGTTCTAACCTGTTGCCT (site ACGTCACCTAG)” the figure was 0.0445.

With “GCGTCACCTTGGGTTCTAACCTGTTGCCT (site CCGTCACCTAG)”, the “recombinant barcode read abundance (log10)” value is 0.0376.

Consider “GCGTCACCTTGGGTTCTAACCTGTTGCCT (site GCGTCACCTAG)”, for which the “recombinant barcode read abundance (log10)” value came to 0.394.

With “GCGTCACCTTGGGTTCTAACCTGTTGCCT (site TCGTCACCTAG)”, the “recombinant barcode read abundance (log10)” value came to 0.382.

As for “GCGTGAGCTTGGGTTCTAACCTGTTGCCT (site GCATGAGCTAG)”, the “recombinant barcode read abundance (log10)” value came out at 1.07. In the case of “GCGTGAGCTTGGGTTCTAACCTGTTGCCT (site GCCTGAGCTAG)”, the “recombinant barcode read abundance (log10)” value worked out at 0.151. As to “GCGTGAGCTTGGGTTCTAACCTGTTGCCT (site GCGTGAGCTAG)”, the “recombinant barcode read abundance (log10)” value was 0.676. Turning to “GCGTGAGCTTGGGTTCTAACCTGTTGCCT (site GCTTGAGCTAG)”, the “recombinant barcode read abundance (log10)” value was determined as 0.0594.

Consider “GCGTGTCCTTGGGTTCTAACCTGTTGCCA (site CCGTGTCCTCG)”, for which the “recombinant barcode read abundance (log10)” value amounted to 0.0431. Turning to “GCGTGTCCTTGGGTTCTAACCTGTTGCCA (site GCGTGTCCTTG)”, the “recombinant barcode read abundance (log10)” value was found to be 0.335.

Take “GCGTTGCCTTGGGTTCTAACCTGTTGCCT (site GAGTTGCCTAG)”: the “recombinant barcode read abundance (log10)” value worked out at 0.073.
